Reference: US12404289B2 (Gilead Sciences, Inc., priority 2020, dated 2025)
Read-outs that look alike come from different tables or passages of the source.

Columns and labels:
Format in all cases: cell-based
[1] = test system: Recombinant respiratory syncytial virus expressing the firefly luciferase protein (RSV-Fluc); experiment: microbe, parasite or virus in culture; conditions: Table 4
SARS-CoV-2 = SARS-CoV-2 antiviral assay (A549-hACE2, Nano luciferase); conditions: A549-hACE2 cells, SARS-CoV2-Nano, MOI 0.025, 48 h, Table 4, read-out: EC50 SARS CoV2
[2] = test system: Respiratory syncytial virus (RSV) strain A2; experiment: Hep-2 RSV2 384-well assay (EC50-HEP2-384); conditions: HEp-2 cells, RSV A2, MOI=4, 4 days
[3] = test system: Respiratory syncytial virus (RSV) strain A2; experiment: RSV antiviral assay (HEp-2, 96 well); conditions: Table 3
[4] = human respiratory syncytial virus, NHBE, 72 h, read-out: EC50 RSVFluc NHBE 96, NHBE cells, RSV-Fluc, MOI of 0.1, three days, 96 well
[5] = Severe acute respiratory syndrome coronavirus 2, 48 h
[6] = read-out: EC50 RSVFluc NHBE 96, NHBE cells, RSV-Fluc, MOI of 0.1, three days, 96 well
[7] = human respiratory syncytial virus, HEp-2, 96 h, Table 3
[8] = read-out: EC50 RSV HEP2 96, HEp-2 cells, RSV A2, MOI=4, 4 days, 96 well
[9] = human respiratory syncytial virus, HEp-2, 96 h, read-out: EC50 RSV HEP2 96, HEp-2 cells, RSV A2, MOI=4, 4 days, 96 well

Compound `CCOC(=O)[C@H](C)NP(=O)(OC[C@H]1O[C@@](C#N)(c2ccc3c(N)ncnn23)[C@H](OC(=O)C(C)C)[C@@H]1OC(=O)C(C)C)Oc1ccc(C(C)(C)C)cc1` (single isomer, unassigned) [Example 18a] has an EC50 [1, 4] of 22.2 nM, an EC50 (SARS-CoV-2; [5]) of 312 nM and an EC50 ([2]; human respiratory syncytial virus, HEp-2, 96 h, Table 1) of 65.4 nM.
With `CCOC(=O)[C@H](C)NP(=O)(OC[C@H]1O[C@@](C#N)(c2ccc3c(N)ncnn23)[C@H](OC(=O)C(C)C)[C@@H]1OC(=O)C(C)C)Oc1ccc(C(C)(C)C)cc1` (single isomer, unassigned) [Example 18b] the EC50 [1, 6] was 15.1 nM, the EC50 (SARS-CoV-2) was 332 nM and the EC50 ([2]; Table 1) was 75 nM.
Compound `CC(C)C(=O)O[C@H]1[C@@H](OC(=O)C(C)C)[C@](C#N)(c2ccc3c(N)ncnn23)O[C@@H]1COP(=O)(N[C@@H](C)C(=O)OC1CCC1)Oc1ccccc1` (single isomer, unassigned) [Example 21a] has an EC50 [1, 6] of 37.4 nM, an EC50 (SARS-CoV-2) of 125 nM and an EC50 ([2]; Table 1) of 92 nM.
`CC(C)C(=O)O[C@H]1[C@@H](OC(=O)C(C)C)[C@](C#N)(c2ccc3c(N)ncnn23)O[C@@H]1COP(=O)(N[C@@H](C)C(=O)OC1CCC1)Oc1ccccc1` (single isomer, unassigned) [Example 21b] gave an EC50 [1, 6] of 33.1 nM, an EC50 (SARS-CoV-2) of 191 nM and an EC50 ([2]; Table 1) of 34.7 nM.
Compound `C[C@H](NP(=O)(OC[C@H]1O[C@@](C#N)(c2ccc3c(N)ncnn23)[C@H](O)[C@@H]1O)Oc1ccc(C(C)(C)C)cc1)C(=O)OC1CCC1` (single isomer, unassigned) [Example 31a] has an EC50 [1, 4] of 6.33 nM, an EC50 (SARS-CoV-2; [5]) of 92.3 nM and an EC50 [2, 7] of 29.2 nM.
Work on `CC(C)C(=O)O[C@H]1[C@@H](OC(=O)C(C)C)[C@](C#N)(c2ccc3c(N)ncnn23)O[C@@H]1COP(=O)(N[C@@H](C)C(=O)OC1CCC1)Oc1ccc(C(C)(C)C)cc1` (single isomer, unassigned) [Example 50a] yielded an EC50 [1, 6] of 27.5 nM, an EC50 (SARS-CoV-2) of 38.8 nM and an EC50 [3, 8] of 21.3 nM.
Compound `CC(C)C(=O)O[C@H]1[C@@H](OC(=O)C(C)C)[C@](C#N)(c2ccc3c(N)ncnn23)O[C@@H]1COP(=O)(N[C@@H](C)C(=O)OC1CCC1)Oc1ccc(C(C)(C)C)cc1` (single isomer, unassigned) [Example 50b] has an EC50 [1, 6] of 5.36 nM, an EC50 (SARS-CoV-2) of 239 nM and an EC50 [3, 8] of 8.52 nM.
For `CC(C)C(=O)O[C@H]1[C@@H](OC(=O)C(C)C)[C@](C#N)(c2ccc3c(N)ncnn23)O[C@@H]1COP(=O)(N[C@@H](C)C(=O)OC1CCC1)Oc1cccc2ccccc12` (single isomer, unassigned) [Example 55a], the EC50 [1, 6] was 19.9 nM, the EC50 (SARS-CoV-2; [5]) was 104 nM and the EC50 [3, 9] was 7.09 nM.
Compound `CC(C)C(=O)O[C@H]1[C@@H](OC(=O)C(C)C)[C@](C#N)(c2ccc3c(N)ncnn23)O[C@@H]1COP(=O)(N[C@@H](C)C(=O)OC1CCC1)Oc1cccc2ccccc12` (single isomer, unassigned) [Example 55b] has an EC50 [1, 6] of 6.12 nM, an EC50 (SARS-CoV-2) of 108 nM and an EC50 [3, 8] of 7.44 nM.
With `CCC(CC)COC(=O)[C@H](C)NP(=O)(OC[C@H]1O[C@@](C#N)(c2ccc3c(N)ncnn23)[C@H](O)[C@@H]1O)Oc1ccc2ccccc2c1` (single isomer, unassigned) [Intermediate S3-b] the EC50 [2, 7] was 68 nM and the EC50 [3, 8] was 18.8 nM.
In the case of `CC(C)C(=O)O[C@H]1[C@@H](OC(=O)C(C)C)[C@](C#N)(c2ccc3c(N)ncnn23)O[C@@H]1COP(=O)(N[C@@H](C)C(=O)OC1CCC1)Oc1ccc(C2CC2)cc1` (some centres unmarked) [Example 52a], the EC50 [1, 4] is reported as 20.8 nM, the EC50 (SARS-CoV-2; [5]) is reported as 64.5 nM and the EC50 [3, 9] is reported as 20.5 nM.
In the case of `C[C@H](NP(=O)(OC[C@H]1O[C@@](C#N)(c2ccc3c(N)ncnn23)[C@H](O)[C@@H]1O)Oc1ccc(C(C)(C)C)cc1)C(=O)OCCC(C)(C)C` (stereo partly drawn) [Example 61, 3,3-dimethylbutyl (2S)-2-[[[(2R,3S,4R,5R)-5-(4-aminopyrrolo[2,1-f][1,2,4]triazin-7-yl)-5-cyano-3,4-dihydroxy-tetrahydrofuran-2-yl]methoxy-(4-tert-butylphenoxy)phosphoryl]amino]propanoate], the EC50 [2, 7] is reported as 72.4 nM and the EC50 [3, 9] is reported as 36.7 nM.
With `C[C@H](NP(=O)(OC[C@H]1O[C@@](C#N)(c2ccc3c(N)ncnn23)[C@H](O)[C@@H]1O)Oc1ccc(C(C)(C)C)cc1)C(=O)OC1CC2(CCC2)C1` (stereo partly drawn) [Example 65, spiro[3.3]heptan-2-yl (2S)-2-[[[(2R,3S,4R,5R)-5-(4-aminopyrrolo[2,1-f][1,2,4]triazin-7-yl)-5-cyano-3,4-dihydroxy-tetrahydrofuran-2-yl]methoxy-(4-tert-butylphenoxy)phosphoryl]amino]propanoate] the EC50 [1, 6] was 3.24 nM, the EC50 (SARS-CoV-2) was 265 nM and the EC50 [3, 9] was 336 nM.
In the case of `CCOC(=O)[C@H](C)NP(=O)(OC[C@H]1O[C@@](C#N)(c2ccc3c(N)ncnn23)[C@H](OC(=O)C(C)C)[C@@H]1OC(=O)C(C)C)Oc1cccc2ccccc12` (stereo partly drawn) [Example 67, [(2R,3R,4R,5R)-5-(4-aminopyrrolo[2,1-f][1,2,4]triazin-7-yl)-5-cyano-2-[[[[(1S)-2-ethoxy-1-methyl-2-oxo-ethyl]amino]-(1-naphthyloxy)phosphoryl]oxymethyl]-4-(2-methylpropanoyloxy)tetrahydrofuran-3-yl] 2-methylpropanoate], the EC50 [1, 4] is reported as 8.72 nM, the EC50 (SARS-CoV-2; [5]) is reported as 27.2 nM and the EC50 [3, 9] is reported as 18 nM.
Compound `CC(=O)O[C@H]1[C@@H](OC(C)=O)[C@](C#N)(c2ccc3c(N)ncnn23)O[C@@H]1COP(=O)(N[C@@H](C)C(=O)OC1CC2(CCC2)C1)Oc1ccc(C(C)(C)C)cc1` (stereo partly drawn) [Example 80, Spiro[3.3]heptan-2-yl (2S)-2-[[(4-tert-butylphenoxy)-[[(2R,3R,4R,5R)-3,4-diacetoxy-5-(4-aminopyrrolo[2,1-f][1,2,4]triazin-7-yl)-5-cyano-tetrahydrofuran-2-yl]methoxy]phosphoryl]amino]propanoate] has an EC50 [1, 6] of 16.5 nM, an EC50 (SARS-CoV-2) of 310 nM and an EC50 [3, 9] of 16.9 nM.
With `CC(C)C(=O)O[C@H]1[C@@H](OC(=O)C(C)C)[C@](C#N)(c2ccc3c(N)ncnn23)O[C@@H]1COP(=O)(N[C@@H](C)C(=O)OC1CCOCC1)Oc1ccc(C(C)(C)C)cc1` (stereo partly drawn) [Example 90, [(2R,3R,4R,5R)-5-(4-aminopyrrolo[2,1-f][1,2,4]triazin-7-yl)-2-[[(4-tert-butylphenoxy)-[[(1S)-1-methyl-2-oxo-2-tetrahydropyran-4-yloxy-ethyl]amino]phosphoryl]oxymethyl]-5-cyano-4-(2-methylpropanoyloxy)tetrahydrofuran-3-yl] 2-methylpropanoate] the EC50 [2, 7] was 124 nM and the EC50 [3, 9] was 20.4 nM.
In the case of `COC(C)(C)COC(=O)[C@H](C)NP(=O)(OC[C@H]1O[C@@](C#N)(c2ccc3c(N)ncnn23)[C@H](OC(=O)C(C)C)[C@@H]1OC(=O)C(C)C)Oc1ccc(C(C)(C)C)cc1` (stereo partly drawn) [Example 116, (2R,3R,4R,5R)-2-(4-aminopyrrolo[2,1-f][1,2,4]triazin-7-yl)-5-((((4-(tert-butyl)phenoxy)(((S)-1-(2-methoxy-2-methylpropoxy)-1-oxopropan-2-yl)amino)phosphoryl)oxy)methyl)-2-cyanotetrahydrofuran-3,4-diyl bis(2-methylpropanoate)], the EC50 [1, 4] is reported as 25 nM, the EC50 (SARS-CoV-2; [5]) is reported as 56 nM and the EC50 [3, 9] is reported as 11.2 nM.
Work on `CC(C)C(=O)O[C@H]1[C@@H](OC(=O)C(C)C)[C@](C#N)(c2ccc3c(N)ncnn23)O[C@@H]1COP(=O)(N[C@@H](C)C(=O)OCC1CCC1)Oc1ccccc1` (stereo partly drawn) [Example 117, (2R,3R,4R,5R)-2-(4-aminopyrrolo[2,1-f][1,2,4]triazin-7-yl)-2-cyano-5-((((((S)-1-(cyclobutylmethoxy)-1-oxopropan-2-yl)amino)(phenoxy)phosphoryl)oxy)methyl)tetrahydrofuran-3,4-diyl bis(2-methylpropanoate)] yielded an EC50 [1, 4] of 22.1 nM, an EC50 (SARS-CoV-2; [5]) of 192 nM and an EC50 [3, 9] of 11 nM.
Work on `CC(C)COC(=O)[C@H](C)NP(=O)(OC[C@H]1O[C@@](C#N)(c2ccc3c(N)ncnn23)[C@H](OC(=O)C(C)C)[C@@H]1OC(=O)C(C)C)Oc1ccc(C(C)(C)C)cc1` (stereo partly drawn) [Example 122, (2R,3R,4R,5R)-2-(4-aminopyrrolo[2,1-f][1,2,4]triazin-7-yl)-5-((((4-(tert-butyl)phenoxy)(((S)-1-isobutoxy-1-oxopropan-2-yl)amino)phosphoryl)oxy)methyl)-2-cyanotetrahydrofuran-3,4-diyl bis(2-methylpropanoate)] yielded an EC50 [1, 4] of 8.73 nM, an EC50 (SARS-CoV-2; [5]) of 167 nM and an EC50 [3, 9] of 16.4 nM.
With `CCC(C)(C)COC(=O)[C@H](C)NP(=O)(OC[C@H]1O[C@@](C#N)(c2ccc3c(N)ncnn23)[C@H](OC(=O)C(C)C)[C@@H]1OC(=O)C(C)C)Oc1ccc(C(C)(C)C)cc1` (stereo partly drawn) [Example 126, (2R,3R,4R,5R)-2-(4-aminopyrrolo[2,1-f][1,2,4]triazin-7-yl)-5-((((4-(tert-butyl)phenoxy)(((S)-1-(2,2-dimethylbutoxy)-1-oxopropan-2-yl)amino)phosphoryl)oxy)methyl)-2-cyanotetrahydrofuran-3,4-diyl bis(2-methylpropanoate)] the EC50 (SARS-CoV-2; [5]) was 77.4 nM, the EC50 [2, 7] was 116 nM and the EC50 [3, 9] was 17 nM.
Work on `CCC(CC)COC(=O)[C@H](C)NP(=O)(OC[C@H]1O[C@@](C#N)(c2ccc3c(N)ncnn23)[C@H](O)[C@@H]1O)Oc1ccc2ccccc2c1` (stereo partly drawn) [Intermediate S3, 2-ethylbutyl ((((2R,3S,4R,5R)-5-(4-aminopyrrolo[2,1-f][1,2,4]triazin-7-yl)-5-cyano-3,4-dihydroxytetrahydrofuran-2-yl)methoxy)(naphthalen-2-yloxy)phosphoryl)-L-alaninate] yielded an EC50 [1, 4] of 5.51 nM and an EC50 (SARS-CoV-2; [5]) of 113 nM.
